Assay results taken from patent US9914730B2, “Azaquinazoline inhibitors of Atypical protein Kinase C” (Ignyta, Inc., priority 2012, dated 2018).

Tests used:
full-length human PKCι = target: T1, full-length human PKCι (Homo sapiens, UniProt P41743); assay: PKCι IC50 IMAP assay, full-length PKCι at 150 μM ATP; type: biochemical; settings: read-out: IC50 in IMAP assay against full length PKCi at 150 μM ATP
T1 construct: Recombinant, full-length human PKCι expressed in Sf21 insect cells is also commercially available; purchased; host or cells: Sf21 insect cells
T1 sequence (P41743 1-596): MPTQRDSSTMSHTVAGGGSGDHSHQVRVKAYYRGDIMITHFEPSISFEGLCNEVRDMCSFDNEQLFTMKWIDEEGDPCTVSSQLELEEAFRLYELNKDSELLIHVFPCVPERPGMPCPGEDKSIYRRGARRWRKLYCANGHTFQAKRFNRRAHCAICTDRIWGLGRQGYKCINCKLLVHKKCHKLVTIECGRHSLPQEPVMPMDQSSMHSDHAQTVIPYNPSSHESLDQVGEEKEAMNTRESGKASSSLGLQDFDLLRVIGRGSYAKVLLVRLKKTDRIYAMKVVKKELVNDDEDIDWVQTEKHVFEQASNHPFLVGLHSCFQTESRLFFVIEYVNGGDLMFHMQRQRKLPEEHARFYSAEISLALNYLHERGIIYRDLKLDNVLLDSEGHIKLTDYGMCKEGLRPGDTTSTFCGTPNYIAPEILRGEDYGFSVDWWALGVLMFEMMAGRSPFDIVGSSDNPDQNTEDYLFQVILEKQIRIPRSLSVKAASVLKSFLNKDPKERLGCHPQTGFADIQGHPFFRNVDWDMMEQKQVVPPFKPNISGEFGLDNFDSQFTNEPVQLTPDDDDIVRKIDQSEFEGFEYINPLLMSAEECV
How it was run: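 IMAP fluorescence polarisation (ex 485/em 530 nm) read-out; % inhibition set from no-compound (0%) and no-enzyme (100%) controls, IC50 from dose-response curve fit. Sf21-expressed full-length enzyme ~15 pM, 100 nM FAM peptide, ATP 150 μM (5× KM^APP), 60 min at RT.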

Row | Molecule | IC50 (full-length human PKCι) [nM] | melting point [°C]
1 | COc1cncc2nc(-c3ccnc(Nc4ccccc4)c3)nc(N3CC[C@H](O)[C@H](O)C3)c12 (racemic) [Example 436, (±)-cis-1-[5-Methoxy-2-(2-phenylamino-pyridin-4-yl)-pyrido[3,4-d]pyrimidin-4-yl]-piperidine-3,4-diol] | 100 to 1000 | 241 to 243
2 | COc1cncc2nc(-c3ccnc(Nc4ccc(Cl)nc4)c3)nc(N3CCNCC3)c12 [Example 405, (6-Chloro-pyridin-3-yl)-[4-(5-methoxy-4-piperazin-1-yl-pyrido[3,4-d]pyrimidin-2-yl)-pyridin-2-yl]-amine] | < 100 | 206 to 208
3 | COc1cncc2nc(-c3ccnc(Nc4ncccn4)c3)nc(N3CCNCC3)c12 [Example 423, [4-(5-Methoxy-4-piperazin-1-yl-pyrido[3,4-d]pyrimidin-2-yl)-pyridin-2-yl]-pyrimidin-2-yl-amine] | 100 to 1000 | 200 to 203
4 | COc1cccc(Nc2cc(-c3nc(N4CCNCC4)c4c(OC)cncc4n3)ccn2)n1 [Example 448, [4-(5-Methoxy-4-piperazin-1-yl-pyrido[3,4-d]pyrimidin-2-yl)-pyridin-2-yl]-(6-methoxy-pyridin-2-yl)-amine] | < 100 | 189 to 191
5 | COc1cncc2nc(-c3ccnc(Nc4ccccc4)c3)nc(N3CCCCC3)c12 [Example 459, [4-(5-Methoxy-4-piperidin-1-yl-pyrido[3,4-d]pyrimidin-2-yl)-pyridin-2-yl]-phenyl-amine] | 10000 to 40000 | 221 to 223
6 | COc1cncc2nc(-c3ccnc(Nc4ccccc4)c3)nc(N3CCC(C#N)CC3)c12 [Example 461, 1-[5-Methoxy-2-(2-phenylamino-pyridin-4-yl)-pyrido[3,4-d]pyrimidin-4-yl]-piperidine-4-carbonitrile] | 1000 to 10000 | 242 to 244
7 | COc1cncc2nc(-c3ccnc(Nc4ccccc4)c3)nc(N3CCC(F)CC3)c12 [Example 462, {4-[4-(4-Fluoro-piperidin-1-yl)-5-methoxy-pyrido[3,4-d]pyrimidin-2-yl]-pyridin-2-yl}-phenyl-amine] | 10000 to 40000 | 202 to 205
8 | c1ccc(Nc2cc(-c3nc(N4CCNCC4)c4c(C5CC5)cncc4n3)ccn2)cc1 [Example 481, [4-(5-Cyclopropyl-4-piperazin-1-yl-pyrido[3,4-d]pyrimidin-2-yl)-pyridin-2-yl]-phenyl-amine] | – | 221 to 226
9 | Fc1cnc(Nc2cc(-c3nc(N4CCNCC4)c4c(C(F)(F)F)cncc4n3)ccn2)c(F)c1 [Example 2194, (3,5-Difluoro-pyridin-2-yl)-[4-(4-piperazin-1-yl-5-trifluoromethyl-pyrido[3,4-d]pyrimidin-2-yl)-pyridin-2-yl]-amine] | < 100 | –
10 | Fc1cc(F)c(Nc2cc(-c3nc(N4CCNCC4)c4c(C(F)(F)F)cncc4n3)ccn2)nc1F [Example 2195, [4-(4-Piperazin-1-yl-5-trifluoromethyl-pyrido[3,4-d]pyrimidin-2-yl)-pyridin-2-yl]-(3,5,6-trifluoro-pyridin-2-yl)-amine] | < 100 | –
11 | CN(c1nc(-c2ccnc(Nc3ncc(F)cc3F)c2)nc2cncc(C3CC3)c12)C1CCNCC1(C)C (centres unmarked) [Example 2196, {5-Cyclopropyl-2-[2-(3,5-difluoro-pyridin-2-ylamino)-pyridin-4-yl]-pyrido[3,4-d]pyrimidin-4-yl}-(3,3-dimethyl-piperidin-4-yl)-methyl-amine] | < 100 | –
12 | N[C@H]1CCCN(c2nc(-c3ccnc(Nc4ncc(F)cc4F)c3)nc3cncc(C4CC4)c23)C1 [Example 2198, {4-[4-(3-Amino-piperidin-1-yl)-5-cyclopropyl-pyrido[3,4-d]pyrimidin-2-yl]-pyridin-2-yl}-(3,5-difluoro-pyridin-2-yl)-amine] | < 100 | –
13 | c1cc(-c2nc(N3CCNCC3)c3c(C4CCC4)cncc3n2)c2c3c([nH]c2n1)CCCC3 [Example 2199, 4-(5-Cyclobutyl-4-piperazin-1-yl-pyrido[3,4-d]pyrimidin-2-yl)-6,7,8,9-tetrahydro-5H-pyrido[2,3-b]indole] | 100 to 1000 | –
14 | Clc1ccc2[nH]c3nccc(-c4nc(N5CCNCC5)c5c(C6CCC6)cncc5n4)c3c2c1 [Example 2200, 6-Chloro-4-(5-cyclobutyl-4-piperazin-1-yl-pyrido[3,4-d]pyrimidin-2-yl)-9H-pyrido[2,3-b]indole] | < 100 | –
15 | Clc1ccccc1-c1cc2c(-c3nc(N4CCNCC4)c4c(C5CC5)cncc4n3)ccnc2[nH]1 [Example 2202, 2-[2-(2-Chloro-phenyl)-1H-pyrrolo[2,3-b]pyridin-4-yl]-5-cyclopropyl-4-piperazin-1-yl-pyrido[3,4-d]pyrimidine] | < 100 | –
16 | Fc1ccccc1-c1cc2c(-c3nc(N4CCNCC4)c4c(C5CCC5)cncc4n3)ccnc2[nH]1 [Example 2203, 5-Cyclobutyl-2-[2-(2-fluoro-phenyl)-1H-pyrrolo[2,3-b]pyridin-4-yl]-4-piperazin-1-yl-pyrido[3,4-d]pyrimidine] | < 100 | –

Row | Molecule | IC50 (full-length human PKCι) [nM] | melting point [°C]
17 | Clc1ccccc1-c1cc2c(-c3nc(N4CCNCC4)c4c(C5CCC5)cncc4n3)ccnc2[nH]1 [Example 2204, 2-[2-(2-Chloro-phenyl)-1H-pyrrolo[2,3-b]pyridin-4-yl]-5-cyclobutyl-4-piperazin-1-yl-pyrido[3,4-d]pyrimidine] | < 100 | –
18 | CNC1CCCN(c2nc(-c3ccnc(Nc4ncc(F)cc4F)c3)nc3cncc(C4CC4)c23)C1 (centres unmarked) [Example 2205, {4-[5-Cyclopropyl-4-(3-methylamino-piperidin-1-yl)-pyrido[3,4-d]pyrimidin-2-yl]-pyridin-2-yl}-(3,5-difluoro-pyridin-2-yl)-amine] | < 100 | –
19 | CNc1ccc(Nc2nc(-c3ccnc(Nc4ncc(F)cc4F)c3)nc3cncc(C4CC4)c23)cc1 [Example 2206, N-{5-Cyclopropyl-2-[2-(3,5-difluoro-pyridin-2-ylamino)-pyridin-4-yl]-pyrido[3,4-d]pyrimidin-4-yl}-N′-methyl-benzene-1,4-diamine] | 10000 to 40000 | –
20 | FC(F)(F)C1(c2cc3c(-c4nc(N5CCNCC5)c5c(C6CC6)cncc5n4)ccnc3[nH]2)CCC1 [Example 2207, 5-Cyclopropyl-4-piperazin-1-yl-2-[2-(1-trifluoromethyl-cyclobutyl)-1H-pyrrolo[2,3-b]pyridin-4-yl]-pyrido[3,4-d]pyrimidine] | < 100 | –
21 | c1cc(-c2nc(N3CCNCC3)c3c(C4CC4)cncc3n2)c2c3c([nH]c2n1)CCCC3 [Example 2208, 4-(5-Cyclopropyl-4-piperazin-1-yl-pyrido[3,4-d]pyrimidin-2-yl)-6,7,8,9-telrahydro-5H-pyrido[2,3-b]indole] | 100 to 1000 | –
22 | Cc1[nH]c2nccc(-c3nc(N4CCNCC4)c4c(C5CC5)cncc4n3)c2c1Cl [Example 2209, 2-(3-Chloro-2-methyl-1H-pyrrolo[2,3-b]pyridin-4-yl)-5-cyclopropyl-4-piperazin-1-yl-pyrido[3,4-d]pyrimidine] | < 100 | –
23 | c1cc(-c2nc(N3CCNCC3)c3c(C4CCC4)cncc3n2)cc(NC2CCOCC2)n1 [Example 2210, [4-(5-Cyclobutyl-4-piperazin-1-yl-pyrido[3,4-d]pyrimidin-2-yl)-pyridin-2-yl]-(tetrahydro-pyran-4-yl)-amine] | < 100 | –
24 | CC1(C)C(=O)Nc2nccc(-c3nc(N4CCNCC4)c4c(C5CC5)cncc4n3)c21 [Example 2211, 4-(5-Cyclopropyl-4-piperazin-1-yl-pyrido[3,4-d]pyrimidin-2-yl)-3,3-dimethyl-1,3-dihydro-pyrrolo[2,3-b]pyridin-2-one] | 1000 to 10000 | –
25 | (2,6-Difluoro-phenyl)-{2-[2-(2,6-difluoro-phenylamino)-pyridin-4-yl]-4-piperazin-1-yl-pyrido[3,4-d]pyrimidin-5-yl}-amine [Example 262] | 100 to 1000 | –
26 | (3-Chloro-2,6- difluoro-phenyl)- [4-(5-cyclopropyl- 4-piperazin-1-yl- pyrido[3,4- d]pyrimidin-2-yl)- pyridin-2-yl]- amine [Example 649] | < 100 | –
27 | (3S)-3-benzyl-1-[6- chloro-2-(pyridin-4- yl)pyrido[3,4-d]- pyrimidin-4- yl]piperazine [Example 14] | 100 to 1000 | –
28 | N-[(2S)-2-amino- 3-phenylpropyl]- 8-(furan-3-yl)-2- (pyridin-4-yl)- pyrido[3,4-d]- pyrimidin-4- amine [Example 113] | 100 to 1000 | –
29 | [4-(5-Cyclopropyl- 4-piperazin-1-yl- pyrido[3,4- d]pyrimidin-2-yl)- pyridin-2-yl]-(2,3- dichloro-phenyl)- amine [Example 543] | < 100 | –
30 | [4-(5-Cyclopropyl- 4-piperazin-1-yl- pyrido[3,4- d]pyrimidin-2-yl)- pyridin-2-yl]-(4- trifluoromethyl- phenyl)-amine [Example 596] | 10000 to 40000 | –
31 | {4-[5-Cyclopropyl- 4-((R)-3- fluoromethyl- piperazin-1- yl)-pyrido[3,4-d]- pyrimidin-2-yl]- pyridin-2-yl}-(6- fluoro-pyridin-2- yl)-amine [Example 512] | < 100 | –
